Laboratory results taken from patent US12514858B2, “CD38 inhibitors” (Astellas Engineered Small Molecules US, Incorporated, priority 2020, dated 2026).
pIC50: −log10 of the molar value.

What follows are compounds tested against Human CD38 (Homo sapiens (Human), UniProt P28907) (assay: Determination of IC50 against human CD38 (CD38 Inhibitor Screening Assay Kit, glycohydrolase activity, fluorescence)). Conditions: CD38 hydrolase enzyme, 30 min preincubation at room temperature, F-NAD substrate, excitation 300 nm, emission 410 nm; read-out: hCD38 IC50.
Type: biochemical
Protocol: CD38 hydrolase buffer (4×) was thawed on ice and 1×CD38 hydrolase buffer was prepared by diluting 4×CD38 hydrolase buffer with water. CD38 hydrolase enzyme was diluted to […] with 1×CD38 hydrolase buffer (10 ng/well). Master mix was prepared by mixing equal volumes of water and CD38 hydrolase buffer (4×) and 10 μl of the mix was added to all the wells. Following master mix addition, 10 μl of the inhibitors and 20 μl of CD38 hydrolase enzyme were added to the wells. For wells designated blank, 10 μl and 20 μl of 1× CD38 hydrolase buffer was added respectively in place of […]. The plate was covered and incubated 30 min at room temperature with slow shaking at 400 rpm. After 30 min incubation, the plate was removed and 10 μl of diluted F-NAD substrate was added to all the wells. The plate is incubated for 10 min, spun at 1200 rpm for 30 secs to remove bubbles and read in Tecan Spark using a fluorometer setting of excitation 300 nm and emission 410 nm. The reading for the blank was subtracted from all the values. IC50 for the test compounds were determined by using Graphpad prism software v7.0.

Chain of Human CD38 (P28907 whole entry): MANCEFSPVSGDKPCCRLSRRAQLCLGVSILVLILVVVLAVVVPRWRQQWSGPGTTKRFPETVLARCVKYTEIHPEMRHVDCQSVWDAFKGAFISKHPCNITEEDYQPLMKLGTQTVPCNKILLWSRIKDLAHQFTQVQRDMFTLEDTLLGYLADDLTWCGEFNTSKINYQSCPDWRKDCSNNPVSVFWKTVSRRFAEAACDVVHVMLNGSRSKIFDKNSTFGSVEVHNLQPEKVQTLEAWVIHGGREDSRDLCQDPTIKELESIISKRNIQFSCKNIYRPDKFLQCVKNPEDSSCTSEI

Row | Structure (SMILES) | pIC50
1 | COCCO[C@H]1CC[C@H](NC(=O)c2cccc(-n3ccnc3)n2)CC1 [Ex 11, 6-(1H-imidazol-1-yl)-N-((1r,4r)-4-(2-methoxyethoxy)cyclohexyl)picolinamide] | 7.31
2 | COCCO[C@H]1CC[C@H](NC(=O)c2cc(-c3cncs3)nc(-n3ccnc3)c2)CC1 [Ex. 1, N-((1r,4r)-4-(2-methoxyethoxy)cyclohexyl)-2-(thiazol-5-yl)-6-(1H-imidazol-1-yl)isonicotinamide] | 7.22
3 | COCCO[C@H]1CC[C@H](NC(=O)c2cc(-c3cncs3)nc(-c3cncs3)c2)CC1 [Ex. 2, N-((1r,4r)-4-(2-methoxyethoxy)cyclohexyl)-2,6-di(thiazol-5-yl)isonicotinamide] | < 7.00
4 | COCCO[C@H]1CC[C@H](NC(=O)c2cc(-c3cnn(C)c3)nc(-c3cncs3)c2)CC1 [Ex. 3, N-((1r,4r)-4-(2-methoxyethoxy)cyclohexyl)-2-(1-methyl-1H-pyrazol-4-yl)-6-(thiazol-5-yl)isonicotinamide] | 7.47
5 | COCCO[C@H]1CC[C@H](NC(=O)c2cc(-c3cncs3)nc(C(F)(F)F)c2)CC1 [Ex. 4, N-((1r,4r)-4-(2-methoxyethoxy)cyclohexyl)-2-(thiazol-5-yl)-6-(trifluoromethyl)isonicotinamide] | 5.46
6 | COCCO[C@H]1CC[C@H](NC(=O)c2cc(SC)nc(-c3cncs3)n2)CC1 [Ex. 7, N-((1r,4r)-4-(2-methoxyethoxy)cyclohexyl)-6-(methylthio)-2-(thiazol-5-yl)pyrimidine-4-carboxamide] | < 5.00
7 | COCCO[C@H]1CC[C@H](NC(=O)c2cc(-c3cnn(C)c3)cc(-c3cncs3)n2)CC1 [Ex. 8, N-((1r,4r)-4-(2-methoxyethoxy)cyclohexyl)-4-(1-methyl-1H-pyrazol-4-yl)-6-(thiazol-5-yl)picolinamide] | 6.54
8 | COCCO[C@H]1CC[C@H](NC(=O)c2cc(Cl)cc(-n3ccnc3)n2)CC1 [Ex. 18, 4-chloro-6-(1H-imidazol-1-yl)-N-((1r,4r)-4-(2-methoxyethoxy)cyclohexyl)-picolinamide] | 7.80
9 | COCCO[C@H]1CC[C@H](NC(=O)c2cc(C(F)(F)F)cc(-n3ccnc3)n2)CC1 [Ex. 19, 6-(1H-imidazol-1-yl)-N-((1r,4r)-4-(2-methoxyethoxy)cyclohexyl)-4-(trifluoromethyl)picolinamide] | 7.34
10 | COCCO[C@H]1CC[C@H](NC(=O)c2cc(F)cc(-n3ccnc3)n2)CC1 [Ex. 20, 4-fluoro-6-(1H-imidazol-1-yl)-N-((1r,4r)-4-(2-methoxyethoxy)cyclohexyl)picolinamide] | 7.67
11 | COCCO[C@H]1CC[C@H](NC(=O)c2cc(-n3ccnc3)nc(-n3ccnc3)c2)CC1 [Ex. 22, 2,6-di(1H-imidazol-1-yl)-N-((1r,4r)-4-(2-methoxyethoxy)cyclohexyl)isonicotinamide] | 7.75
12 | COCCO[C@H]1CC[C@H](NC(=O)c2cc(-c3ccn(C)n3)nc(-n3ccnc3)c2)CC1 [Ex. 26, 2-(1H-imidazol-1-yl)-N-((1r,4r)-4-(2-methoxyethoxy)cyclohexyl)-6-(1-methyl-1H-pyrazol-3-yl)isonicotinamide] | 6.82
13 | O=C(NC1CCCCC1)c1cccc(-n2ccnc2)n1 [Ex. 32, N-cyclohexyl-6-(1H-imidazol-1-yl)picolinamide] | 7.28
14 | COCCO[C@H]1CC[C@H](NC(=O)c2cc(SC)cc(-n3ccnc3)n2)CC1 [Ex. 37, 6-(1H-imidazol-1-yl)-N-((1r,4r)-4-(2-methoxyethoxy)cyclohexyl)-4-(methylthio)picolinamide] | 7.38
15 | COCCO[C@H]1CC[C@H](NC(=O)c2cc(C(C)O)cc(-n3ccnc3)n2)CC1 (stereo partly shown) [Ex. 38, 4-(1-Hydroxyethyl)-6-(1H-imidazol-1-yl)-N-((1r,4r)-4-(2-methoxyethoxy)cyclohexyl)picolinamide] | 6.51
16 | Cc1cc(C(=O)N[C@H]2CC[C@H](OC(F)F)CC2)nc(-n2ccnc2)n1 [Ex. 42, N-((1r,4r)-4-(difluoromethoxy)cyclohexyl)-2-(1H-imidazol-1-yl)-6-methylpyrimidine-4-carboxamide] | 8.32
17 | COCCO[C@H]1CC[C@H](NC(=O)c2cc(C#N)cc(-n3ccnc3)n2)CC1 [Ex. 43, 4-Cyano-6-(1H-imidazol-1-yl)-N-((1r,4r)-4-(2-methoxyethoxy)cyclohexyl)picolinamide] | 7.77

Results, then the compound that gave them:

Row | pIC50 | Structure (SMILES)
18 | 6.59 | COCCO[C@H]1CC[C@H](NC(=O)c2cc(-c3cncs3)nc(-c3cncs3)n2)CC1 [Ex. 5, N-((1r,4r)-4-(2-methoxyethoxy)cyclohexyl)-2,6-di(thiazol-5-yl)pyrimidine-4-carboxamide]
19 | 7.28 | COCCO[C@H]1CC[C@H](NC(=O)c2cc(-c3cnn(C)c3)nc(-c3cncs3)n2)CC1 [Ex. 6, N-((1r,4r)-4-(2-methoxyethoxy)cyclohexyl)-6-(1-methyl-1H-pyrazol-4-yl)-2-(thiazol-5-yl)pyrimidine-4-carboxamide]
20 | 5.00 | COCCO[C@H]1CC[C@H](NC(=O)c2cccc(-c3cncs3)n2)CC1 [Ex. 9, N-((1r,4r)-4-(2-methoxyethoxy)cyclohexyl)-6-(thiazol-5-yl)picolinamide]
21 | 7.62 | COCCO[C@H]1CC[C@H](NC(=O)c2cc(-c3c(C)nn(C)c3C)cc(-n3ccnc3)n2)CC1 [Ex. 14, 6-(1H-imidazol-1-yl)-N-((1r,4r)-4-(2-methoxyethoxy)cyclohexyl)-4-(1,3,5-trimethyl-1H-pyrazol-4-yl)picolinamide]
22 | 7.68 | COCCO[C@H]1CC[C@H](NC(=O)c2cc(-c3cnn(C)c3)nc(-n3ccnc3)c2)CC1 [Ex. 23, 2-(1H-imidazol-1-yl)-N-((1r,4r)-4-(2-methoxyethoxy)cyclohexyl)-6-(1-methyl-1H-pyrazol-4-yl)isonicotinamide]
23 | 6.82 | CCn1cc(-c2cc(C(=O)N[C@H]3CC[C@H](OCCOC)CC3)cc(-n3ccnc3)n2)cn1 [Ex. 24, 2-(1-ethyl-1H-pyrazol-4-yl)-6-(1H-imidazol-1-yl)-N-((1r,4r)-4-(2-methoxyethoxy)cyclohexyl)isonicotinamide]
24 | 7.92 | COCCO[C@H]1CC[C@H](NC(=O)c2cc(-c3cnn(C(C)C)c3)nc(-n3ccnc3)c2)CC1 [Ex. 25, 2-(1H-imidazol-1-yl)-6-(1-isopropyl-1H-pyrazol-4-yl)-N-((1r,4r)-4-(2-methoxyethoxy)cyclohexyl)isonicotinamide]
25 | 7.51 | COCCO[C@H]1CC[C@H](NC(=O)c2cc(C)cc(-n3ccnc3)n2)CC1 [Ex. 29, 6-(1H-imidazol-1-yl)-N-((1r,4r)-4-(2-methoxyethoxy)cyclohexyl)-4-methylpicolinamide]
26 | 6.37 | COCCO[C@H]1CC[C@H](NC(=O)c2cc(-n3ccnc3)cc(-c3cnn(C)c3)n2)CC1 [Ex. 30, 4-(1H-imidazol-1-yl)-N-((1r,4r)-4-(2-methoxyethoxy)cyclohexyl)-6-(1-methyl-1H-pyrazol-4-yl)picolinamide]
27 | 7.27 | O=C(N[C@H]1CC[C@H](O)CC1)c1cccc(-n2ccnc2)n1 [Ex. 31, N-((1r,4r)-4-hydroxycyclohexyl)-6-(1H-imidazol-1-yl)picolinamide]
28 | 7.59 | O=C(N[C@H]1CC[C@H](O)CC1)c1ccnc(-n2ccnc2)n1 [Ex. 34, N-((1r,4r)-4-hydroxycyclohexyl)-2-(1H-imidazol-1-yl)pyrimidine-4-carboxamide]
29 | 8.13 | COCCO[C@H]1CC[C@H](NC(=O)c2cc(C)nc(-n3ccnc3)n2)CC1 [Ex. 35, 2-(1H-imidazol-1-yl)-N-((1r,4r)-4-(2-methoxyethoxy)cyclohexyl)-6-methylpyrimidine-4-carboxamide]
30 | 7.41 | COCCO[C@H]1CC[C@H](NC(=O)c2cc(C(F)(F)F)nc(-n3ccnc3)n2)CC1 [Ex. 36, 2-(1H-imidazol-1-yl)-N-((1r,4r)-4-(2-methoxyethoxy)cyclohexyl)-6-(trifluoromethyl)pyrimidine-4-carboxamide]
31 | 6.86 | COCCO[C@H]1CC[C@H](NC(=O)c2cc(S(C)(=O)=O)cc(-n3ccnc3)n2)CC1 [Ex. 39, 6-(1H-imidazol-1-yl)-N-((1r,4r)-4-(2-methoxyethoxy)cyclohexyl)-4-(methylsulfonyl)picolinamide]
32 | 5.72 | COCCO[C@H]1CC[C@H](NC(=O)c2cc(C(C)(C)O)cc(-n3ccnc3)n2)CC1 [Ex. 40, 4-(2-Hydroxypropan-2-yl)-6-(1H-imidazol-1-yl)-N-((1r,4r)-4-(2-methoxyethoxy)cyclohexyl)picolinamide]
33 | 7.80 | O=C(N[C@H]1CC[C@H](OC(F)F)CC1)c1ccnc(-n2ccnc2)n1 [Ex. 41, N-((1r,4r)-4-(difluoromethoxy)cyclohexyl)-2-(1H-imidazol-1-yl)pyrimidine-4-carboxamide]
34 | 7.92 | Cc1cc(C(=O)N[C@H]2CC[C@H](OCCO)CC2)nc(-n2ccnc2)n1 [Ex. 44, N-((1r,4r)-4-(2-hydroxyethoxy)cyclohexyl)-2-(1H-imidazol-1-yl)-6-methylpyrimidine-4-carboxamide]
35 | 7.55 | COCCO[C@H]1CC[C@H](NC(=O)c2cc(C(=O)O)nc(-n3ccnc3)n2)CC1 [Ex. 45]
36 | 6.84 | COCCO[C@H]1CC[C@H](NC(=O)c2cc(C)nc(-n3ccnc3)c2)CC1 [Ex. 46, 2-(1H-imidazol-1-yl)-N-((1r,4r)-4-(2-methoxyethoxy)cyclohexyl)-6-methylisonicotinamide]
37 | 7.51 | COCCO[C@H]1CC[C@H](NC(=O)c2cc(C#N)nc(-n3ccnc3)n2)CC1 [Ex. 47, 6-cyano-2-(1H-imidazol-1-yl)-N-((1r,4r)-4-(2-methoxyethoxy)cyclohexyl)pyrimidine-4-carboxamide]
